In the NIST ThermoML archive (doi:10.1021/je0502391) one finds mass density data, which are given here for 6 compounds.

SMILES strings stand for the structures. ± gives the expanded uncertainty stated by the source.

The conditions of the data set: 298.15 K; 101.33 kPa; Liquid.
For the compound `C=C1CC[C@H]2C[C@@H]1C2(C)C` [(1S,5S)-6,6-dimethyl-2-methylenebicyclo[3.1.1]heptane], the mass density (in general, mass per unit of volume) is 866.84 ± 0.62 kg/m3.

Turning to `CCCCCCCCCCCC` [dodecane], the mass density is reported as 745.41 ± 0.78 kg/m3.

For `CC1=CC[C@H]2C[C@@H]1C2(C)C` [(S)-2-pinene], the mass density is recorded as 853.88 ± 0.63 kg/m3.

With `CO` [methanol], the mass density is recorded as 786.62 ± 0.31 kg/m3.

Consider `Cc1ccccc1` [toluene], for which the mass density is reported as 862.35 ± 0.24 kg/m3.

For the compound `C=C(C)[C@H]1CC=C(C)CC1` [(R)-1-methyl-4-(1-methylethenyl)cyclohexene], the mass density is recorded as 837.31 ± 1.3 kg/m3.
